ChEMBL document CHEMBL1128652, “Synthesis of the macrolide antibiotic, oxolide” (Bioorg Med Chem Lett, 1995)
Active and inactive are the calls of the source. The rule behind the calls is not given here.

System: Haemophilus influenzae
Test: Antibacterial activity against gram-negative bacteria, Haemophilus influenzae; A - found to be active
Type: functional, organism-based

CC[C@H]1OC(=O)[C@H](C)[C@@H](O[C@H]2C[C@@](C)(OC)[C@@H](O)[C@H](C)O2)[C@H](C)[C@@H](O[C@@H]2O[C@H](C)C[C@H](N(C)C)[C@H]2O)[C@@](C)(O)C[C@@H](C)[C@@H]2O[C@]1(C)[C@@H](N)[C@H]2C
Activity: Active
